# Data taken from patent US11446292B2, “Compounds and conjugates thereof” (MedImmune Limited, priority 2019, dated 2022).
# pIC50: −log10 of the molar value.
# Tested on: NCI-N87 cells
# Experiment: In vitro assay of warhead, cell viability by MTS
# Type: cell-based
# Conditions: Homo sapiens, 168 h, 7 days incubation, mean of three independent replicates
# Method: Solid test material was dissolved in DMSO to a 2 mM stock solution, from which eight serial dilutions were made at a 1:10 ratio in DMSO and stored at −20° C. until use.
# Adherent NCI-N87 cells were washed with D-PBS and detached with Trypsin-EDTA, cell density and viability were then determined in duplicate by Trypan blue exclusion assay using an automated cell counter (LUNA-II™). Cell suspension was diluted to 1×10^5 cells/ml in growth media (RPMI 1640 with Glutamax+10% (v/v) HyClone™ Fetal Bovine Serum) and vortexed before dispensing 2 mL per well into sterile 3 mL polypropylene plates. Warhead dilutions were then dispensed into the appropriate wells at 10 μl/well and mixed by repeat pipetting. […] At the end of the incubation period time (7 days), cell viability was measured by CellTiter 96 ™ aqueous One (MTS) assay, which was dispensed at 20 μl/well and incubated for 4 hours at 37° C., 5% CO2. Plates were then read on an EnVision™ Multi-label Plate Reader (Perkin Elmer) using absorbance at 490 nm.
# Cell survival percentage was calculated from the mean absorbance of the 2 replicate wells for each sample, compared to the mean absorbance in the two control wells treated with DMSO only (100%). The IC50 was determined by fitting each data set to sigmoidal dose-response curves with a variable slope using the non-linear curve fit algorithm on the GraphPad Prism software (San Diego, Calif.). […]
structure (smiles),measurement,value
"CC[C@@]1(O)C(=O)OCc2c1cc1n(c2=O)Cc2c-1nc1ccc(N)c3c1c2CCC3 [Compound I11, (S)-4-amino-9-ethyl-9-hydroxy-1,2,3,9,12,15-hexahydro-10H,13H-benzo[de]pyrano[3′,4′:6,7]indolizino[1,2-b]quinoline-10,13-dione]",pIC50,9.41
